The values below come from ChEMBL document CHEMBL2073987, “The sulphonylurea glibenclamide inhibits multidrug resistance protein (MRP1) activity in human lung cancer cells” (Br J Pharmacol, 2001).

Data set [1] concerns the target ATP-binding cassette sub-family C member 2 (Rattus norvegicus, UniProt Q63120). Briefly: TP_TRANSPORTER: inhibition of Carboxy-2',7'-dichlorofluorescein efflux (Calcein: 0.5 micro;M, Glibenclamide, 50-100 uM, increase intercellular CF level by ~2 fold) in isolated rat hepatocytes. It counts as functional, cell-based, Hepatocyte.
The target of data set [2] is Multidrug resistance-associated protein 1 (Homo sapiens, UniProt P33527). Nature of the data set: TP_TRANSPORTER: inhibition of Calcein efflux (Calcein: 0.5 micro;M, Glibenclamide: 50-100 uM, increase intercellular calcein level by ca 4 fold ) in GLC4/Sb30 cells. In kind it is functional, cell-based.
Chain of Multidrug resistance-associated protein 1 (P33527 whole entry): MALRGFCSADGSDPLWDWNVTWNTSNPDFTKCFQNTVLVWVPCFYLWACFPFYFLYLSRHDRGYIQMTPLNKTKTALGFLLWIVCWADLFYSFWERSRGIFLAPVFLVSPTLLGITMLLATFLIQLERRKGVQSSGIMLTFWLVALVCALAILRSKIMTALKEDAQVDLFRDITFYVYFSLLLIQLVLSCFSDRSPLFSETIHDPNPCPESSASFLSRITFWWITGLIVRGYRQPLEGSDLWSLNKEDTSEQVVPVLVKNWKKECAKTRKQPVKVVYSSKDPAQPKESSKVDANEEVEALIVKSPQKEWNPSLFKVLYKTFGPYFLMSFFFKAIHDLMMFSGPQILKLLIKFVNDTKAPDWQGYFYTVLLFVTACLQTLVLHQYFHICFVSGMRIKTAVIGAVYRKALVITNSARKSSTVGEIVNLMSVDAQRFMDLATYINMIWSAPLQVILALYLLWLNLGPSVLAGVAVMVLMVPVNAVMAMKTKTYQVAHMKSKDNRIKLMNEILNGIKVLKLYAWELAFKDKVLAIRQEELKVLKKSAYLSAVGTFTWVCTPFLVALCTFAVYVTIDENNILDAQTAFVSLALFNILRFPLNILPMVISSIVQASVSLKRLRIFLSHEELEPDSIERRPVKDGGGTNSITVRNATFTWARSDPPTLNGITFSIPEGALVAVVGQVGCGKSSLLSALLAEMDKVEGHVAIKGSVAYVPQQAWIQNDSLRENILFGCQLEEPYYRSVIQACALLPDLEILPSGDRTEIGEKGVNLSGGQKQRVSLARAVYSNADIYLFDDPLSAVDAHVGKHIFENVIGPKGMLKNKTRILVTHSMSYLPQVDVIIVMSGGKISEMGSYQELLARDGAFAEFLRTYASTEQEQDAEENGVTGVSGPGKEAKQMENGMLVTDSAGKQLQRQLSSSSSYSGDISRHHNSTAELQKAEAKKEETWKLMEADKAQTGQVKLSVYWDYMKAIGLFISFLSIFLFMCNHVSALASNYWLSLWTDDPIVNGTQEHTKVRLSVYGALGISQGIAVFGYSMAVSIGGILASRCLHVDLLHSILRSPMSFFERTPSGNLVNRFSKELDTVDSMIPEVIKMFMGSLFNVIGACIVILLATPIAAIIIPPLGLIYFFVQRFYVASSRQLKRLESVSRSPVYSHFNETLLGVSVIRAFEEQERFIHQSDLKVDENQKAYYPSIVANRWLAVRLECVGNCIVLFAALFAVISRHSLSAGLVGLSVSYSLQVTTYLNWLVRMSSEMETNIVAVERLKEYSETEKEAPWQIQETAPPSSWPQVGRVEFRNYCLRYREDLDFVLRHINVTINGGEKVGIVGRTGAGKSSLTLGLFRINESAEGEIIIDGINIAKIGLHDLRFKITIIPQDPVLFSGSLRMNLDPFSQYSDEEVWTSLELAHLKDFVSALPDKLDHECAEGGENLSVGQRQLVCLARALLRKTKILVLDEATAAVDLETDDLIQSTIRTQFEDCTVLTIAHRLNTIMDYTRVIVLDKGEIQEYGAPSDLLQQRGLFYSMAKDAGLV

Chain of ATP-binding cassette sub-family C member 2 (Q63120 whole entry): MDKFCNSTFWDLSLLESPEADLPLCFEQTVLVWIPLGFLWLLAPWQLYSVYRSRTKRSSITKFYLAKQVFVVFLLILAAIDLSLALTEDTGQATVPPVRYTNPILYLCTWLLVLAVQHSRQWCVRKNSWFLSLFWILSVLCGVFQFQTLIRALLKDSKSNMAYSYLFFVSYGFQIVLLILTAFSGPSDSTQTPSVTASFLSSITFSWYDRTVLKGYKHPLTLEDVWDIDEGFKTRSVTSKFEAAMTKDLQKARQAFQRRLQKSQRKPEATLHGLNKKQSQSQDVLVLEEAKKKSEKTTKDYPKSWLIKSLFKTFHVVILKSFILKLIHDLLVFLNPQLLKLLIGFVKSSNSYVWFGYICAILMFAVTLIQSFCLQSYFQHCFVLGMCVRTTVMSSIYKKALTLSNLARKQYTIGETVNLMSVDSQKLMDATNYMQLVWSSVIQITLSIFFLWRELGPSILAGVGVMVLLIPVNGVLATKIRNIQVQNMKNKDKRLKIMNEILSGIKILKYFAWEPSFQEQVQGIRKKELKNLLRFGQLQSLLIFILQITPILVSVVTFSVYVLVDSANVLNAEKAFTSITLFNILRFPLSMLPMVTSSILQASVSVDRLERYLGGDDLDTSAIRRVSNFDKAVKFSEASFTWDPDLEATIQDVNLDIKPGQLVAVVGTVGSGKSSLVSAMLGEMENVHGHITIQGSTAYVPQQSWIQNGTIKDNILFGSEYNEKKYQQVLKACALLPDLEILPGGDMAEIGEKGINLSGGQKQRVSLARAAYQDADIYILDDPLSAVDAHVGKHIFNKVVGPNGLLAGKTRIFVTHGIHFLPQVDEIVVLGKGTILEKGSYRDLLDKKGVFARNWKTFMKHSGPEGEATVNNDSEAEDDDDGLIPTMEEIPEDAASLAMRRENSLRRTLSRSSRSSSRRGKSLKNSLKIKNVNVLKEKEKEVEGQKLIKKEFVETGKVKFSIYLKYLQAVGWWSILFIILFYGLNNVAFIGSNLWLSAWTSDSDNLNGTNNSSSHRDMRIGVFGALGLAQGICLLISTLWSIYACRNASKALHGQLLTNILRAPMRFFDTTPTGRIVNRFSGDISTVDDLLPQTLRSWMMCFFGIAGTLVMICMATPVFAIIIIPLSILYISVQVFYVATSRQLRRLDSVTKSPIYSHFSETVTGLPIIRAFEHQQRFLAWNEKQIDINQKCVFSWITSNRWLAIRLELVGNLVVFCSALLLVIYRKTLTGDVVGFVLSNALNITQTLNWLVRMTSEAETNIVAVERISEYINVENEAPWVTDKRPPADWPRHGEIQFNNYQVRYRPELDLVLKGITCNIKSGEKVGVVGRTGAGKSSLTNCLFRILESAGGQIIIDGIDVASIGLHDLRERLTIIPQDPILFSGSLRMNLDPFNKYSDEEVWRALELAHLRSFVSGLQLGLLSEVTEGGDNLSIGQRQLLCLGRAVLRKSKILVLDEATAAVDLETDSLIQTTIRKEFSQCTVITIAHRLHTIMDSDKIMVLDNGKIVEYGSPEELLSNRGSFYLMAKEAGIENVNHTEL

On to `COc1ccc(Cl)cc1C(=O)NCCc1ccc(S(=O)(=O)NC(=O)NC2CCCCC2)cc1` [GLYBURIDE], for which the Activity result in data set [1] and in data set [2] was “inhibitor [+]” throughout.
